The values below come from patent US20250129078A1, “ERBB2 INHIBITORS” (Cogent Biosciences, Inc., priority 2023, published 2025).

The structures appear in SMILES notation.

This assay addresses EGFR WT (Homo sapiens (Human), UniProt P00533). The assay is described as follows: ErbB enzyme assay (CisBio HTRF-KinEASE-TK), EGFR WT. In kind it is biochemical. The settings on record: ATP at Km (25 μM), 1 h incubation. In outline:
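Tyrosine kinase HTRF, 1 h RT reaction → quench (Sa-XL665/TK-Ab-Cryptate) → 1 h RT → 655/620 ratio.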

A word on the IC50: it is the concentration at which inhibition is half-maximal. Read a low IC50 as greater potency in that assay.

Sequence of EGFR WT (P00533 25-1210): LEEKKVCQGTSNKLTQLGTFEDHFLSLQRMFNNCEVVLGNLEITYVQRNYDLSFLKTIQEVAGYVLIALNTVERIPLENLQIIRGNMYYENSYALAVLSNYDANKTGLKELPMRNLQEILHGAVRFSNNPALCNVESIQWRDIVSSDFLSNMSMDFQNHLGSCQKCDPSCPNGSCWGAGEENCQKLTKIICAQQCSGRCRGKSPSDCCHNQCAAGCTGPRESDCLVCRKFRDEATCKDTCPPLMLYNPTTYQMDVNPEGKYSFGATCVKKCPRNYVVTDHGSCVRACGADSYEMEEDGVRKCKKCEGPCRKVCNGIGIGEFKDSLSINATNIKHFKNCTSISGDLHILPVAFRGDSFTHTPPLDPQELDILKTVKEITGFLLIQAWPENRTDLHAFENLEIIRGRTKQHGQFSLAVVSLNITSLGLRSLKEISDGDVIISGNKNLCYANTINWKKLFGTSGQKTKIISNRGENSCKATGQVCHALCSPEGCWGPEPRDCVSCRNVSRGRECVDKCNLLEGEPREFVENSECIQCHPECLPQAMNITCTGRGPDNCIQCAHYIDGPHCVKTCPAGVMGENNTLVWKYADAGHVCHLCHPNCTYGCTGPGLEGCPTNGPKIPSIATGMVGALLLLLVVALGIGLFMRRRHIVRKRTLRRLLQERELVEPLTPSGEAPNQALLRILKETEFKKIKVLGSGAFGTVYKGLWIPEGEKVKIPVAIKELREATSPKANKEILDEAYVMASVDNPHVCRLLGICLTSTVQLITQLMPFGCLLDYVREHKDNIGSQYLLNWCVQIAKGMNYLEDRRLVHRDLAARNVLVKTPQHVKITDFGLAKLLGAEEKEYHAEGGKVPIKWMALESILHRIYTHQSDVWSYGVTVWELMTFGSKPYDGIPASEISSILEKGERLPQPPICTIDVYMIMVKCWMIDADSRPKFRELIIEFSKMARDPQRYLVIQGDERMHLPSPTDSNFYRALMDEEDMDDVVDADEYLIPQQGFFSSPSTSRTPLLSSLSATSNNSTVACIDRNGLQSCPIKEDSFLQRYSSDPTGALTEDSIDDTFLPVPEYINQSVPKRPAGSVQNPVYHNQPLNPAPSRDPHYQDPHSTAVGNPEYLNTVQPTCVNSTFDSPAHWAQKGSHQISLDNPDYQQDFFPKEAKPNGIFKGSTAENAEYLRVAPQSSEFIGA

`C=CC(=O)N1CC2CCC1CN2c1ccc2ncnc(Nc3ccc(Oc4ccc5c(c4)nnn5C)c(C)c3)c2n1` (stereo not drawn) [Compound 82, 1-(5-(4-((3-methyl-4-((1-methyl-1H-benzo[d][1,2,3]triazol-5-yl)oxy)phenyl)amino)pyrido[3,2-d]pyrimidin-6-yl)-2,5-diazabicyclo[2.2.2]octan-2-yl)prop-2-en-1-one] came in with a half-maximal inhibitory concentration (IC50) below 50 nM. Molecule `C=CC(=O)N[C@H]1CN(c2ccc3ncnc(Nc4ccc(Oc5ccc6c(c5)nnn6C)c(C)c4F)c3n2)CC[C@@H]1C` [Compound 350, N-((3R,4S)-1-(4-((2-fluoro-3-methyl-4-((1-methyl-1H-benzo[d][1,2,3]triazol-5-yl)oxy)phenyl)amino)pyrido[3,2-d]pyrimidin-6-yl)-4-methylpiperidin-3-yl)acrylamide] registered an IC50 of 100 to 500 nM.

In turn, `C=CC(=O)N1CCN(c2ncc3ncnc(Nc4ccc(Oc5cc6nnn(C)c6c(C)c5F)c(C)c4)c3n2)CC1` [Compound 141, 1-(4-(8-((4-((6-fluoro-1,7-dimethyl-1H-benzo[d][1,2,3]triazol-5-yl)oxy)-3-methylphenyl)amino)pyrimido[5,4-d]pyrimidin-2-yl)piperazin-1-yl)prop-2-en-1-one] came in with an IC50 of 100 to 500 nM. `C=CC(=O)N1CC(N(C)c2ncc3ncnc(Nc4ccc(Oc5ccc6c(c5)nnn6C)c(C)c4F)c3n2)C1` [Compound 69, 1-(3-((8-((2-fluoro-3-methyl-4-((1-methyl-1H-benzo[d][1,2,3]triazol-5-yl)oxy)phenyl)amino)pyrimido[5,4-d]pyrimidin-2-yl)(methyl)amino)azetidin-1-yl)prop-2-en-1-one] gave an IC50 below 50 nM.

As to `C=CC(=O)N1CC2CCC(C1)N2c1ncc2ncnc(Nc3ccc(Oc4ccc5c(c4)nnn5C)c(C)c3)c2n1` [Compound 46, 1-(8-(8-((3-methyl-4-((1-methyl-1H-benzo[d][1,2,3]triazol-5-yl)oxy)phenyl)amino)pyrimido[5,4-d]pyrimidin-2-yl)-3,8-diazabicyclo[3.2.1]octan-3-yl)prop-2-en-1-one], the half-maximal inhibitory concentration (IC50) is below 50 nM.

For `COC[C@@H]1CN(c2ccc3ncnc(Nc4ccc(Oc5ccc6c(c5)nnn6C)c(C)c4)c3n2)CCN1C(=O)/C=C/CF` [Compound 363, (S,E)-4-fluoro-1-(2-(methoxymethyl)-4-(4-((3-methyl-4-((1-methyl-1H-benzo[d][1,2,3]triazol-5-yl)oxy)phenyl)amino)pyrido[3,2-d]pyrimidin-6-yl)piperazin-1-yl)but-2-en-1-one], the IC50 fell in the range of 50 to 100 nM. For `C=CC(=O)N[C@@H]1CCCN(c2ncc3ncnc(Nc4ccc(Oc5cc(F)c6c(c5)nnn6C)c(C)c4F)c3n2)C1` [Compound 178, (R)-N-(1-(8-((2-fluoro-4-((7-fluoro-1-methyl-1H-benzo[d][1,2,3]triazol-5-yl)oxy)-3-methylphenyl)amino)pyrimido[5,4-d]pyrimidin-2-yl)piperidin-3-yl)acrylamide] the value was below 50 nM; for `C=CC(=O)N1CCN(c2ccc3ncnc(Nc4ccc(Oc5cc(F)c6c(c5)nnn6C)c(C)c4F)c3n2)C[C@@H]1C1CC1` [Compound 292, (S)-1-(2-cyclopropyl-4-(4-((2-fluoro-4-((7-fluoro-1-methyl-1H-benzo[d][1,2,3]triazol-5-yl)oxy)-3-methylphenyl)amino)pyrido[3,2-d]pyrimidin-6-yl)piperazin-1-yl)prop-2-en-1-one], 100 to 500 nM. Take `C=CC(=O)N1CCN(c2ccc3ncnc(Nc4ccc(Oc5ccc6c(c5)nnn6C)c(C)c4)c3n2)CC1(C)C` [Compound 89, 1-(2,2-dimethyl-4-(4-((3-methyl-4-((1-methyl-1H-benzo[d][1,2,3]triazol-5-yl)oxy)phenyl)amino)pyrido[3,2-d]pyrimidin-6-yl)piperazin-1-yl)prop-2-en-1-one]: the 50% inhibitory concentration (IC50) was in the range of 50 to 100 nM. As for `C=CC(=O)N1CCC=C(c2ccc3ncnc(Nc4ccc(Oc5ccc6c(c5)nnn6C)c(C)c4)c3n2)C1` [Compound 407, 1-(5-(4-((3-methyl-4-((1-methyl-1H-benzo[d][1,2,3]triazol-5-yl)oxy)phenyl)amino)pyrido[3,2-d]pyrimidin-6-yl)-3,6-dihydropyridin-1(2H)-yl)prop-2-en-1-one], the concentration for half-maximal inhibition (IC50) is below 50 nM. For `C=CC(=O)N1CCN(c2ccc3ncnc(Nc4ccc(Oc5ccc6c(c5)nnn6C)c(C)c4)c3n2)C[C@@H]1C` [Compound 72, (S)-1-(2-methyl-4-(4-((3-methyl-4-((1-methyl-1H-benzo[d][1,2,3]triazol-5-yl)oxy)phenyl)amino)pyrido[3,2-d]pyrimidin-6-yl)piperazin-1-yl)prop-2-en-1-one] the value was 100 to 500 nM. For `C=CC(=O)N1CCN(c2ccc3ncnc(Nc4ccc(Oc5ccc6c(c5)nnn6C(F)F)c(C)c4F)c3n2)CC1(C)C` [Compound 322, 1-(4-(4-((4-((1-(difluoromethyl)-1H-benzo[d][1,2,3]triazol-5-yl)oxy)-2-fluoro-3-methylphenyl)amino)pyrido[3,2-d]pyrimidin-6-yl)-2,2-dimethylpiperazin-1-yl)prop-2-en-1-one] the value was 500 to 1000 nM; for `C=C(F)C(=O)N1C2CCC1CN(c1ccc3ncnc(Nc4ccc(Oc5ccc6c(c5)nnn6C)c(C)c4)c3n1)C2` [Compound 87, 2-fluoro-1-(3-(4-((3-methyl-4-((1-methyl-1H-benzo[d][1,2,3]triazol-5-yl)oxy)phenyl)amino)pyrido[3,2-d]pyrimidin-6-yl)-3,8-diazabicyclo[3.2.1]octan-8-yl)prop-2-en-1-one], 500 to 1000 nM. In turn, `C=C(F)C(=O)N1CCN(c2ccc3ncnc(Nc4ccc(Oc5ccc6c(c5)nnn6C)c(C)c4)c3n2)C[C@H]1CC#N` [Compound 86, (R)-2-(1-(2-fluoroacryloyl)-4-(4-((3-methyl-4-((1-methyl-1H-benzo[d][1,2,3]triazol-5-yl)oxy)phenyl)amino)pyrido[3,2-d]pyrimidin-6-yl)piperazin-2-yl)acetonitrile] had an IC50 of at least 1000 nM.

`C=CC(=O)N1CCN(c2ncc3ncnc(Nc4cc(F)c(Oc5ccc6c(c5)nnn6C)c(Cl)c4)c3n2)C[C@H]1C` [Compound 194, (R)-1-(4-(8-((3-chloro-5-fluoro-4-((1-methyl-1H-benzo[d][1,2,3]triazol-5-yl)oxy)phenyl)amino)pyrimido[5,4-d]pyrimidin-2-y1)-2-methylpiperazin-1-yl)prop-2-en-1-one] gave an IC50 below 50 nM. Molecule `C=CC(=O)N1CCC(Oc2ncc3ncnc(Nc4ccc(Oc5ccc6c(c5)nnn6C)c(C)c4)c3n2)CC1` [Compound 390, 1-(4-((8-((3-methyl-4-((1-methyl-1H-benzo[d][1,2,3]triazol-5-yl)oxy)phenyl)amino)pyrimido[5,4-d]pyrimidin-2-yl)oxy)piperidin-1-yl)prop-2-en-1-one] registered an IC50 below 50 nM. For `C=CC(=O)N1[C@H](C)CN(c2ccc3ncnc(Nc4ccc(Oc5ccc6c(c5)nnn6C)c(C)c4)c3n2)C[C@H]1C` [Compound 248, 1-((2R,6R)-2,6-dimethyl-4-(4-((3-methyl-4-((1-methyl-1H-benzo[d][1,2,3]triazol-5-yl)oxy)phenyl)amino)pyrido[3,2-d]pyrimidin-6-yl)piperazin-1-yl)prop-2-en-1-one] the value was at least 1000 nM; for `C=CC(=O)N1CCN(c2nc3c(Nc4ccc(Oc5ccc6c(c5)nnn6C)c(C)c4)ncnc3cc2OC)CC1` [Compound 98, 1-(4-(7-methoxy-4-((3-methyl-4-((1-methyl-1H-benzo[d][1,2,3]triazol-5-yl)oxy)phenyl)amino)pyrido[3,2-d]pyrimidin-6-yl)piperazin-1-yl)prop-2-en-1-one], below 50 nM.

In turn, `C=C(F)C(=O)N1CCN(c2ncc3ncnc(Nc4ccc(Oc5ccc6c(c5)nnn6C)c(C)c4)c3n2)C[C@H]1COC` [Compound 211, (S)-2-fluoro-1-(2-(methoxymethyl)-4-(8-((3-methyl-4-((1-methyl-1H-benzo[d][1,2,3]triazol-5-yl)oxy)phenyl)amino)pyrimido [5,4-d]pyrimidin-2-yl)piperazin-1-yl) prop-2-en-1-one] showed an IC50 of at least 1000 nM. Then `C=CC(=O)N[C@@H]1CCCN(c2ccc3ncnc(Nc4ccc(Oc5ccc6c(c5)nnn6C)c(C)c4F)c3n2)CC1` [Compound 283, (R)-N-(1-(4-((2-fluoro-3-methyl-4-((1-methyl-1H-benzo[d][1,2,3]triazol-5-yl)oxy)phenyl)amino)pyrido[3,2-d]pyrimidin-6-yl)azepan-4-yl)acrylamide], with at least 1000 nM; and `C=CC(=O)N1CCC(Oc2ncc3ncnc(Nc4ccc(Oc5ccn6ncnc6c5)c(C)c4)c3n2)CC1` [Compound 376, 1-(4-((8-((4-([1,2,4]triazolo[1,5-a]pyridin-7-yloxy)-3-methylphenyl)amino)pyrimido[5,4-d]pyrimidin-2-yl)oxy)piperidin-1-yl)prop-2-en-1-one], with 100 to 500 nM; and `C=C(F)C(=O)N1C2CCC1CN(c1ncc3ncnc(Nc4ccc(Oc5ccc6c(c5)nnn6C)c(C)c4)c3n1)C2` [Compound 51, 2-fluoro-1-(3-(8-((3-methyl-4-((1-methyl-1H-benzo[d][1,2,3]triazol-5-yl)oxy)phenyl)amino)pyrimido [5,4-d]pyrimidin-2-yl)-3,8-diazabicyclo [3.2.1]octan-8-yl)prop-2-en-1-one 2,2,2-trifluoroacetate], with at least 1000 nM. For `C=CC(=O)N1CCN(c2ncc3ncnc(Nc4ccc(Oc5cnn6ccnc6c5)c(C)c4)c3n2)CC1` [Compound 234, 1-(4-(8-((4-(imidazo[1,2-b]pyridazin-7-yloxy)-3-methylphenyl)amino)pyrimido[5,4-d]pyrimidin-2-yl)piperazin-1-yl)prop-2-en-1-one] the value was below 50 nM. As to `C=CC(=O)N1CC(Oc2ncc3ncnc(Nc4ccc(Oc5ccc6c(c5)ncn6C)c(C)c4)c3n2)C1` [Compound 383, 1-(3-((8-((3-methyl-4-((1-methyl-1H-benzo[d]imidazol-5-yl)oxy)phenyl)amino)pyrimido[5,4-d]pyrimidin-2-yl)oxy)azetidin-1-yl)prop-2-en-1-one], the half-inhibitory concentration (IC50) is below 50 nM.
